Reference: patent publication US20200216416A1, “QUINOLINE COMPOUNDS AS INHIBITORS OF TAM AND MET KINASES” (Array BioPharma Inc., priority 2019, published 2020)
Read-outs that look alike come from different tables or passages of the source.

Key:
human MET kinase D1228H = biological target: T1, human MET kinase D1228H (Homo sapiens, UniProt P08581, D1228H); test: c-Met Enzyme Assay, D1228H mutant; assay type: binding; details: averaged IC50; D1228H 2 nM; 60-minute incubation at 22° C.; read-out: D1228 H IC50
T1 construct: GST-tagged recombinant human MET kinase domain; purchased Signal Chem
Protocol: (§1) The affinity of compound binding to wild type and mutant human MET kinases was measured using Invitrogen's LanthaScreen™ Eu Kinase Binding technology. Briefly, GST-tagged recombinant human MET kinase domain from Signal Chem (see Table 8 below for concentration in assay) was incubated with 50 nM Alexa-Fluor® Tracer 236 (Invitrogen Cat No. PR9078A) and 2 nM Europium-anti-GST (Invitrogen Cat. No. A15116) along with test compound in a buffer consisting of 25 mM HEPES, pH 7.4, 10 mM MgCl2, 0.01% Triton X-100, 1mM DTT, and 2% DMSO. Compounds were typically prepared in a three-fold serial dilution in DMSO and added to the assay to give the appropriate final concentration. After a 60-minute incubation at 22° C., the reaction was measured using a PerkinElmer EnVision multimode plate reader via TR-FRET dual wavelength detection, and the percent of control (POC) calculated using a ratiometric emission factor. […] The POC values were fit to a 4 parameter logistic curve and the IC50 value is point where the curve crosses 50 POC.

human MET kinase F1200I = biological target: T2, human MET kinase F1200I (Homo sapiens, UniProt P08581, F1200I); test: c-Met Enzyme Assay, F1200I mutant; assay type: binding; details: averaged IC50; F1200I 2 nM; 60-minute incubation at 22° C.
T2 construct: GST-tagged recombinant human MET kinase domain; purchased Signal Chem
Protocol: as §1

MDR1 (P-gp) = biological target: T3, MDR1 (P-gp) (Homo sapiens, UniProt P08183); test: MDR1 LLC-PK1 permeability assay; assay type: in vitro ADME; details: pig, MDR1 transfected LLC-PK1 cells; for Papp at 2 h, 1 μM: permeability coefficient (Papp)
T3 construct: expressed in transfected cells; host or cells: LLC-PK1
Protocol: MDR1 transfected LLC-PK1 cells were cultured and plated according to manufacturer's recommendations with the exception that the passage media contained only 2% fetal bovine serum to extend passage time out to seven days.
Both positive and negative controls were used to assess functionality of P-gp efflux in the assay. Stock solutions for assay controls and the test article were prepared in DMSO for final test concentrations of 10 and 1 μM, respectively. Final organic concentration in the assay was 1%. All dosing solutions contained 10 μM lucifer yellow to monitor LLC-PK1 cell monolayer integrity.
For the apical to basolateral determination (A to B), 75 μL of the test article in transport buffer were added to the apical side of the individual transwells and 250 μL of basolateral media, without compound or lucifer yellow, were added to each well. For the basolateral to apical determination (B to A), 250 μL of test article in transport buffer were added to each well and 75 μL transport buffer, without compound or lucifer yellow, were added to each transwell. All tests were performed in triplicate, and each compound was tested for both apical to basolateral and basolateral to apical transport. The plates were incubated for 2 hours on a Lab-Line Instruments Titer Orbital Shaker (VWR, West Chester, Pa.) at 50 rpm and 37° C. with 5% CO2. All culture plates were removed from the incubator and 50 μL of media were removed from the apical and basolateral portion of each well and added to 150 μL of 1 μM labetalol in 2:1 acetonitrile (acetonitrile): H2O, v/v.
The plates were read using a Molecular Devices (Sunnyvale, Calif.) Gemini Fluorometer to evaluate the lucifer yellow concentrations at excitation/emission wavelengths of 425/535 nm. These values were accepted when found to be below 2% for apical to basolateral and 5% basolateral to apical flux across the MDR1-transfected LLC-PK1-transfected cell monolayers. The plates were sealed and the contents of each well analyzed by LC-MS/MS. The compound concentrations were determined from the ratio of the peak areas of the compound to the internal standard (labetalol) in comparison to the dosing solution.
The LC-MS/MS system was comprised of an HTS-PAL autosampler (Leap Technologies, Carrboro, N.C.), an HP1200 HPLC (Agilent, Palo Alto, Calif.), and a MDS Sciex 4000 Q Trap system (Applied Biosystems, Foster City, Calif.). […] The total run time, including re-equilibration, for a single injection was 1.2 minutes. Mass spectrometric detection of the analytes was accomplished using the ion spray positive mode. Analyte responses were measured by multiple reaction monitoring (MRM) of transitions unique to each compound (the protonated precursor ion and selected product ions for each test article and m/z 329 to m/z 162 for labetalol, the internal standard).
The permeability coefficient (Papp) is calculated from the following equation: […]
where Cd, V, t and C0 are the detected concentration (μM), the volume on the dosing side (mL), the incubation time (s) and the initial dosing concentration (μM), respectively. The calculations for Papp were made for each replicate and then averaged. In this assay, a compound is defined has having high permeability if the permeability is greater than 8×10^−6 cm/sec, a compound is defined has having medium permeability if the permeability is from 2×10^−6 cm/sec to 8×10^−6 cm/sec, and a compound is defined has having low permeability if the permeability is less than 2×10^−6 cm/sec.
An efflux ratio was calculated from the mean apical to basolateral (A-B) Papp data and basolateral to apical (B-A) Papp data:
Efflux ratio=Papp(B−A)/Papp(A−B)

[1] = LLC-PK1, Papp(B−A)/Papp(A−B), test article 1 μM, 2 hours, 37° C., read-out: Efflux ratio
[2] = LLC-PK1, efflux ratio = Papp(B-A)/Papp(A-B), read-out: MDR1 Pe Ratio

T1 sequence (P08581 1078-1345 D1228H): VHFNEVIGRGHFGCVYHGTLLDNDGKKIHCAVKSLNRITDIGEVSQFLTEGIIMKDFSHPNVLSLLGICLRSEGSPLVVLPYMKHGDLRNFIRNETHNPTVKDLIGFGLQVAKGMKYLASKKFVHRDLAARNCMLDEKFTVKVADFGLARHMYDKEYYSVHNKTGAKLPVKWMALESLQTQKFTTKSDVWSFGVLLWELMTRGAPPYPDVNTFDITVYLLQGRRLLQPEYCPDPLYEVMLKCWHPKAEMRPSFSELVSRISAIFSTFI
T3 sequence (P08183 whole entry): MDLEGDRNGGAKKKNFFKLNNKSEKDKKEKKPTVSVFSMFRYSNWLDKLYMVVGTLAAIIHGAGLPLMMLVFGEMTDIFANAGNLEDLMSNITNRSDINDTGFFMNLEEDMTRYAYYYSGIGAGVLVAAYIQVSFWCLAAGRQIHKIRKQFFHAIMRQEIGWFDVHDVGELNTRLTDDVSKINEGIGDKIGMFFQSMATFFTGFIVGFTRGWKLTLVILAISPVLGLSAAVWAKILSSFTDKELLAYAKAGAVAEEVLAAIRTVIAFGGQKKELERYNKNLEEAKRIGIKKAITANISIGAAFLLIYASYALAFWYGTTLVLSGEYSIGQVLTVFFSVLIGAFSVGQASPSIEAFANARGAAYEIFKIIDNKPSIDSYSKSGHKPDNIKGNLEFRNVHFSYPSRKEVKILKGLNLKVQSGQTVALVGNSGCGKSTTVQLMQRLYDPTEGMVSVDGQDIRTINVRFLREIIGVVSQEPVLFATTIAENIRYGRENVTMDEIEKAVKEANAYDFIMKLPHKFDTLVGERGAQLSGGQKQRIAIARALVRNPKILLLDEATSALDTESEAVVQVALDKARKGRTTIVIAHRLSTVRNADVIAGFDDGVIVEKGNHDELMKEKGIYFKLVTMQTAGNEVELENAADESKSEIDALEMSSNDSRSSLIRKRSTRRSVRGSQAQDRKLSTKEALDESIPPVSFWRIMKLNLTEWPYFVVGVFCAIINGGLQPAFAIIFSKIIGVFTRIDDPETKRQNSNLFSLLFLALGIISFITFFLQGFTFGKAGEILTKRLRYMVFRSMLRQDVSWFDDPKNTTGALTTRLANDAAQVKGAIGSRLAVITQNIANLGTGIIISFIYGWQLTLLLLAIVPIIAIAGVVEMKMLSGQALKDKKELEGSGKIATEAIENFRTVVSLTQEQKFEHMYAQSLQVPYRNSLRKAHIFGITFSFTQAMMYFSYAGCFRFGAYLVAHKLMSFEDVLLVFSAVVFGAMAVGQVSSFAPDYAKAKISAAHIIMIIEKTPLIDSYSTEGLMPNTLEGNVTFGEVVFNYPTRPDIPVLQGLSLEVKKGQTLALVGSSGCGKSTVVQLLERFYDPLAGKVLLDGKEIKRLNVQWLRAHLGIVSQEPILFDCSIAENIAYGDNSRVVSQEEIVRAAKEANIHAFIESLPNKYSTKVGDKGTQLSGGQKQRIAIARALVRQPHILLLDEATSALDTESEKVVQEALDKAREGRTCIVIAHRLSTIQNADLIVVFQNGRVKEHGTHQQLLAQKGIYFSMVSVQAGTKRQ
T2 sequence (P08581 1078-1345 F1200I limits assumed): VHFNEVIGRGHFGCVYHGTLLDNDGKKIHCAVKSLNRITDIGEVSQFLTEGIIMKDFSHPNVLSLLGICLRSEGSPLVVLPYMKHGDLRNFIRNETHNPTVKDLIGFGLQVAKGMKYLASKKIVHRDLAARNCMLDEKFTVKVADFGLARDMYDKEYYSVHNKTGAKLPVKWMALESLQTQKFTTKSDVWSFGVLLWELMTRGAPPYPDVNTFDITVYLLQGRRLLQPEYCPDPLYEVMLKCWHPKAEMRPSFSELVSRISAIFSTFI

IC50 (human MET kinase D1228H)	IC50 (human MET kinase F1200I)	efflux ratio at 2 h, 1 μM (MDR1 (P-gp); [1])	efflux ratio at 2 h, 1 μM (MDR1 (P-gp); [2])	Papp at 2 h, 1 μM (MDR1 (P-gp))	Compound
6.5 nM	6.9 nM	–	31	–	COc1cc2nccc(Oc3ccc(NC(=O)c4cn(CC(C)C)cc(-c5ccc(F)cc5)c4=O)nc3)c2cc1OC [Example 11, N-(5-((6,7-dimethoxyquinolin-4-yl)oxy)pyridin-2-yl)-5-(4-fluorophenyl)-1-isobutyl-4-oxo-1,4-dihydropyridine-3-carboxamide]
8.4 nM	7 nM	–	15	13 ×10⁻⁶ cm/s	COc1cc2nccc(Oc3ccc(NC(=O)c4cn(C5CCOCC5)cc(-c5ccc(F)cc5)c4=O)nc3)c2cc1OC [Example 12, N-(5((6,7-dimethoxyquinolin-4-yl)oxy)pyridin-2-yl)-5-(4-fluorophenyl)-4-oxo-1-(tetrahydro-2H-pyran-4-yl)-1,4-dihydropyridine-3-carboxamide]
4.4 nM	4.8 nM	–	112	6 ×10⁻⁶ cm/s	COc1cc2nccc(Oc3ccc(NC(=O)c4cn(CC(=O)N(C)C)cc(-c5ccc(F)cc5F)c4=O)nc3)c2cc1OC [Example 13, 5-(2,4-difluorophenyl)-N-(5((6,7-dimethoxyquinolin-4-yl)oxy)pyridin-2-yl)-1-(2-(dimethylamino)-2-oxoethyl)-4-oxo-1,4-dihydropyridine-3-carboxamide]
35.4 nM	12.4 nM	–	125	10 ×10⁻⁶ cm/s	COc1cc2nccc(Oc3ccc(NC(=O)c4cn(CC(=O)N5CCCC5)cc(-c5ccc(F)cc5F)c4=O)nc3)c2cc1OC [Example 14]
99.1 nM	24.4 nM	–	135	2 ×10⁻⁶ cm/s	COc1cc2nccc(Oc3ccc(NC(=O)c4cn(CC(=O)N5CCOCC5)cc(-c5ccc(F)cc5F)c4=O)nc3)c2cc1OC [Example 15, 5-(2,4-difluorophenyl)-N-(5-((6,7-dimethoxyquinolin-4-yl)oxy)pyridin-2-yl)-1-(2-morpholino-2-oxoethyl)-4-oxo-1,4-dihydropyridine-3-carboxamide]
5.4 nM	6.8 nM	3.5	2	4 ×10⁻⁶ cm/s	CCC(CC)n1cc(C(=O)Nc2ccc(Oc3ccnc4cc(OC)c(OC)cc34)cn2)c(=O)c(-c2ccc(F)cc2F)c1 [Example 16, 5-(2,4-difluorophenyl)-N-(5-((6,7-dimethoxyquinolin-4yl)oxy)pyridin-2-yl)-4-oxo-1-(pentan-3-yl)-1,4-dihydropyridine-3-carboxamide]
–	–	–	–	25 ×10⁻⁶ cm/s	COc1cc2nccc(Oc3ccc(NC(=O)c4cn(C(C)C)c(C(C)C)c(-c5ccc(F)cc5)c4=O)nc3)c2cc1OC [Example 38, N-(5-((6,7-dimethoxyquinolin-4yl)oxy)pyridin-2-yl)-5-(4-fluorophenyl)-1,6-diisopropyl-4-oxo-1,4-dihydropyridine-3-carboxamide]

Second part, the compound before the results:

Compound	IC50 (human MET kinase D1228H)	IC50 (human MET kinase F1200I)	efflux ratio at 2 h, 1 μM (MDR1 (P-gp); [1])	efflux ratio at 2 h, 1 μM (MDR1 (P-gp); [2])	Papp at 2 h, 1 μM (MDR1 (P-gp))
COc1cc2nccc(Oc3ccc(NC(=O)c4cn(C(C)C)cc(-c5ccc(F)cc5)c4=O)nc3)c2cc1OC [Example 1]	1.8 nM	2.5 nM	3.5	3.2	10 ×10⁻⁶ cm/s
COc1cc2nccc(Oc3ccc(NC(=O)c4cn(C)cc(-c5ccc(F)cc5)c4=O)nc3)c2cc1OC [Example 2]	16.6 nM	6.8 nM	–	8.3	15 ×10⁻⁶ cm/s
CCn1cc(C(=O)Nc2ccc(Oc3ccnc4cc(OC)c(OC)cc34)cn2)c(=O)c(-c2ccc(F)cc2)c1 [Example 3]	4.7 nM	5 nM	–	4.3	10 ×10⁻⁶ cm/s
COc1cc2nccc(Oc3ccc(NC(=O)c4cn(C(C)C)cc(-c5ccc(F)cc5F)c4=O)nc3)c2cc1OC [Example 4]	3.2 nM	3 nM	3.5	1.5	10 ×10⁻⁶ cm/s
COc1cc2nccc(Oc3ccc(NC(=O)c4cn(C(C)C)cc(-c5ccc(Cl)cc5)c4=O)nc3)c2cc1OC [Example 5, 5-(4-chlorophenyl)-N-(5-((6,7-dimethoxyquinolin-4-yl)oxy)pyridin-2-yl)-1-isopropyl-4-oxo-1,4-dihydropyridine-3-carboxamide]	9.6 nM	5.7 nM	3.5	2.6	5 ×10⁻⁶ cm/s
COc1cc2nccc(Oc3ccc(NC(=O)c4cn(C(C)C)cc(-c5ccc(F)c(F)c5)c4=O)nc3)c2cc1OC [Example 6]	12.1 nM	8.1 nM	–	4.9	7 ×10⁻⁶ cm/s
COCCn1cc(C(=O)Nc2ccc(Oc3ccnc4cc(OC)c(OC)cc34)cn2)c(=O)c(-c2ccc(F)cc2)c1 [Example 7, N-(5((6,7-dimethoxyquinolin-4-yl)oxy)pyridin-2-yl)-5-(4-fluorophenyl)-1-(2-methoxyethyl)-4-oxo-1,4-dihydropyridine-3-carboxamide]	2 nM	3.7 nM	–	8.2	11 ×10⁻⁶ cm/s
COc1cc2nccc(Oc3ccc(NC(=O)c4cn(CC5CCOCC5)cc(-c5ccc(F)cc5)c4=O)nc3)c2cc1OC [Example 8, N-(5-((6,7-dimethoxyquinolin-4-yl)oxy)pyridin-2-yl)-5-(4-fluorophenyl)-4-oxo-1-((tetrahydro-2H-pyran-4-yl)methyl)-1,4-dihydropyridine-3-carboxamide]	7.2 nM	4.9 nM	–	10	9 ×10⁻⁶ cm/s
COc1cc2nccc(Oc3ccc(NC(=O)c4cn(CC(C)(C)O)cc(-c5ccc(F)cc5)c4=O)nc3)c2cc1OC [Example 9, N-(5-((6,7-dimethoxyquinolin-4-yl)oxy)pyridin-2-yl)-5-(4-fluorophenyl)-1-(2-hydroxy-2-methylpropyl)-4-oxo-1,4-dihydropyridine-3-carboxamide]	10 nM	6.4 nM	–	26	14 ×10⁻⁶ cm/s
CCCn1cc(C(=O)Nc2ccc(Oc3ccnc4cc(OC)c(OC)cc34)cn2)c(=O)c(-c2ccc(F)cc2)c1 [Example 10, N-(5((6,7-dimethoxyquinolin-4-yl)oxy)pyridin-2-yl)-5-(4-fluorophenyl)-4-oxo-1-propyl-1,4-dihydropyridine-3-carboxamide]	3.7 nM	4.2 nM	–	2.7	7 ×10⁻⁶ cm/s
